According to patent publication US20220402961A1 (BONTAC BIO-ENGINEERING(SHENZHEN) CO.,LTD, priority 2021, published 2022):

Settings: screened with a sieve (1.00 mm, No. 18), poured into glass graduated measuring cylinder, apparent volume
Experimental: The tops were scraped flat. The apparent volumes were recorded. The bulk densities were calculated.

**Q.** With NC(=O)c1ccc[n+]([C@@H]2O[C@H](COP(=O)([O-])O)[C@@H](O)[C@H]2O)c1 [Form 1, nicotinamide mononucleotide anhydrous crystal (form 1)] as the molecule, how does the Bulk density read?
**A.** 0.15 g/mL
